Laboratory results from US9309336B2, “Synthesis and antiscalant behavior of a novel polyzwitterionic acid” (King Fahd University of Petroleum and Minerals, priority 2013, dated 2016).
Where “and” joins values, the source holds several entries; their conditions need not be identical. Identical values can stand only once.

Assays:
[1] = Potentiometric titration for protonation (basicity) constants; assay type: physicochemical; conditions: 23° C.; for Log K1^o (first protonation), Average / Log K2^o (second protonation), Average / n1 (first protonation), Average / n2 (second protonation), Average: average of runs 1-3, SD in last digit in parentheses
Method: Protonation constants (K1 and K2) of polymer 8 [ZH2^±=] and its corresponding monomer unit 11 [ZH2^±=] were determined by potentiometric titrations which were carried out in atmosphere of N2 in CO2-free water as described elsewhere using a solution (Tables 3 and 4) of PZDA 6 [ZH2^±] or monomer form 11 [ZH2^±=] in 200 cm^3 of salt-free water or 0.1 N NaCl (S. A. Ali, et al., J. Polym. Sc. A: Polym. Chem. 2010, 48, 5693-5703—incorporated herein by reference in its entirety). The Log K1 and Log K2 of the —P(═O)O^= (in 8 or 11) are calculated at each pH value by the Henderson-Hasselbalch eq 2 (Scheme 1) where a is the ratio [ZH^±−]eq/[Z]o and [ZH2^±]eq/[Z]o, respectively. The [ZH^±−]eq and [ZH2^±]eq represent the respective equilibrium concentrations of the first and second protonated species whereas [Z]o describes the initial concentration of repeating units.
For the determination of the second step protonation constant (log K2) of —P(═O)(OH)O^− (i.e. [ZH^±−]) using the titration of polymer 6 [ZH2^±] with NaOH, [Z]o and [ZH2^±]eq are related by [ZH2^±]eq=[Z]o−COH^−−[H^+]+[OH^−], where COH^− represent the added NaOH concentration. The equilibrium [H^+] and [OH^−] values were calculated from the pH value (W. K. Felty, J. Chem. Educ. 1978, 55, 576; R. Barbucci, et al., Macromolecules 1981, 14, 1203-1209—each incorporated herein by reference in its entirety). The first step protonation constant (log K1) involving the protonation of —P(═O)(O^−)2 (i.e. [Z^±=]) using volume of the titrant after deducting the equivalent volume from the total volume. In this case, α represents the ratio [ZH^±−]eq/[Z]o whereby [ZH^±−]eq equals [Z]o−COH^−−[H^+]+[OH^−]. For the titration of 11 [Z^±=] with HCl, the protonated species' concentration is given by: [ZHi=1,2]eq═CH^+−[H^+]+[OH^−].
Eq. 3 (Scheme 1) describes the apparent basicity constants of —P(═O)(O^−)2 where log K^o=pH at α=0.5 and n=1 in the case of sharp basicity constants.
The ‘n’ and log K^o as the respective slope and intercept were determined from the linear regression fit of pH vs. log [(1−α)/α)]. Protonation at the same time of the three basic sites: —PO3^=(log K1≈+8), —PO3H^− (log K2≈+3) and —SO3^−(log K3≈−2.1) (J. P. Guthrie, Can. J. Chem. 1978, 56, 2342-2354—incorporated herein by reference in its entirety) is not likely due to differences of their basicity constants by about 5 orders of magnitude (vide infra). Note that basicity constant log K of any base B is the pKa of its conjugate acid BH^+.

[2] = Solubility of monomer 4 (observation at isolation); assay type: physicochemical
Method: Synthesis of 3-[Diallyl{3-(diethoxyphosphoryl)propyl}ammonio]propane-1-sulfonate (4) preferably occurs by the following method: under N2 at 70° C., a solution of diethyl 3-(diallylamino)propylphosphonate 2 (15.0 g, 54.5 mmol) and 3 (7.0 g, 57.3 mmol) in CH3CN (30 cm^3) was stirred for 60 h. The residue, after removal of acetonitrile, was crystallized from acetone (30 cm^3) in the presence of small amount of methanol to give white crystals of 4 (19.5 g, 90%). The extremely hygroscopic monomer is insoluble in acetone but soluble in methanol or water. Mp 140-142° C. (closed capillary); (Found: C, 47.9; H, 8.4; N, 3.4; S, 7.8%. C16H32NO6PS requires C, 48.35; H, 8.11; N, 3.52; S, 8.07%); νmax (KBr): 3402, 2985, 2940, 1644, 1479, 1428, 1394, 1213, 1042, 967, 875, 786, 733 and 605 cm^−1; δH (D2O) 1.22 (6H, t, J=7 Hz), 1.86 (2H, m), 1.96 (2H, m), 2.11 (2H, m), 2.84 (2H, t, J=7.5 Hz), 3.23 (2H, apparent t, J=10 Hz), 3.31 (2H, apparent t, J=10 Hz), 3.85 (4H, d, J=7 Hz), 4.04 (4H, m), 5.64 (4H, m), 5.89 (2H, m), (HOD: 4.65); δC (D2O) 15.83 (s, PCH2CH2), 16.47 (d, 2C, Me, ^3J (PC) 4.1 Hz), 18.29 (s, SCH2CH2), 21.45 (d, PCH2, ^1J (PC) 143 Hz), 47.97 (s, SCH2CH2CH2), 57.26 (s, SCH2CH2CH2), 58.32 (d, PCH2CH2CH2, ^3J (PC) 16.4 Hz), 61.72 (2C, ═CH—CH2, s), 64.38 (d, 2C, OCH2CH3, ^2J (PC) 6.2 Hz), 124.40 (2C, s, CH2=CH), 129.80 (2C, s, CH2═CH) (dioxane: 67.40 ppm); δP (202 MHz, D2O): 31.01 (s). DEPT 135 NMR analysis was carried out to assign the ^13C signals.

[3] = 0.1M NaCl, single runs (polymer runs 1, 2 in the presence of 1.5 mL of 0.1222M HCl)

| Compound | Log K1^o (first protonation), Average ([1]; 0.1M NaCl) | Log K2^o (second protonation), Average ([1]; 0.1M NaCl) | n1 (first protonation), Average ([1]; 0.1M NaCl) | n2 (second protonation), Average ([1]; 0.1M NaCl) | Log K1^o (first protonation) ([1]; 0.1M NaCl, single runs) | n1 (first protonation) ([1]; 0.1M NaCl, single runs) | Log K2^o (second protonation) [1, 3] | n2 (second protonation) [1, 3] | Log K1^o (first protonation), Average ([1]; Salt-Free water) | Log K2^o (second protonation), Average ([1]; Salt-Free water) | n1 (first protonation), Average ([1]; Salt-Free water) | n2 (second protonation), Average ([1]; Salt-Free water) | Log K1^o (first protonation) ([1]; Salt-Free water, single runs) | Log K2^o (second protonation) ([1]; Salt-Free water, single runs) | n1 (first protonation) ([1]; Salt-Free water, single runs) | n2 (second protonation) ([1]; Salt-Free water, single runs) | solubility ([2]; acetone) | solubility ([2]; methanol) | solubility ([2]; water) |
| --- | --- | --- | --- | --- | --- | --- | --- | --- | --- | --- | --- | --- | --- | --- | --- | --- | --- | --- | --- |
| C=CC[N+](CC=C)(CCCP(=O)([O-])[O-])CCCS(=O)(=O)[O-].[Na+].[Na+] [Monomer 11] | 7.12 (1) | 2.90 (5) | 1.03 (1) | 1.01 (4) | 7.12 and 7.11 and 7.13 | 1.03 and 1.04 | 2.91 and 2.84 and 2.94 | 0.993 and 1.06 and 0.990 | 7.53 | 2.74 (2) | 1.04 (1) | 1.02 (3) | 7.50 and 7.54 and 7.55 | 2.75 and 2.72 | 1.04 and 1.05 | 1.02 and 0.984 and 1.05 | – | – | – |
| C=CC[N+](CC=C)(CCCP(=O)(OCC)OCC)CCCS(=O)(=O)[O-] [Monomer 4, 3-[diallyl{3-(diethoxyphosphoryl)propyl}ammonio]propane-1-sulfonate] | – | – | – | – | – | – | – | – | – | – | – | – | – | – | – | – | insoluble | soluble | soluble |
